Earlier results as cited in patent US7625587B2, “Hepato phyto-nutraceutical synergistic composition” (priority 2006, dated 2009).
One block for each molecule: values may come before it.

What was measured:
mice hepatocytes [1] = tested on: mice hepatocytes
[2] = tested on: 11_beta-hydroxysteroid dehydrogenase; settings: in vitro
beta-reductase = settings: in vitro
[3] = tested on: bacterial resistance mechanism (multidrug pump); settings: in the presence of 5′-MHC
mice hepatocytes [4] = tested on: mice hepatocytes; remark: listed apart in the source
[5] = tested on: carbon tetrachloride hepatotoxicity; settings: mouse, in vivo
hepatic mitochondria = settings: free oxygen radical induced damage
[6] = tested on: hepatic toxicity induced by paracetamol, prednisolone and bromobenzene; settings: mice; pre-treatment during ten days

Compound: CC1(C)[C@@H](O[C@H]2O[C@H](C(=O)O)[C@@H](O)[C@H](O)[C@H]2O[C@@H]2O[C@H](C(=O)O)[C@@H](O)[C@H](O)[C@H]2O)CC[C@]2(C)[C@H]3C(=O)C=C4[C@@H]5C[C@@](C)(C(=O)O)CC[C@]5(C)CC[C@@]4(C)[C@]3(C)CC[C@@H]12 [glicirricinic acid]
- toxic action of carbon tetrachloride and of galactosamine (mice hepatocytes [1]): reduces the toxic action

- inhibition of 11_beta-hydroxysteroid dehydrogenase [2]: inhibits
- inhibition of beta-reductase (beta-reductase): inhibits
Compound: CC1(C)[C@@H](O)CC[C@]2(C)[C@H]3C(=O)C=C4[C@@H]5C[C@@](C)(C(=O)O)CC[C@]5(C)CC[C@@]4(C)[C@]3(C)CC[C@@H]12 [glycyrrhetic acid]

Compound: COc1cc([C@H]2Oc3cc(-c4cc(=O)c5c(O)cc(O)cc5o4)cc(OC)c3O[C@@H]2CO)ccc1O (racemic) [5′-methoxyhydnocarpin]
- accumulation of berberine in the cells [3]: strong increase of accumulation of berberine

Compound: CC1(C)[C@@H](O[C@H]2O[C@H](C(=O)O)[C@@H](O)[C@H](O)[C@H]2O[C@@H]2O[C@H](C(=O)O)[C@@H](O)[C@H](O)[C@H]2O)CC[C@]2(C)[C@H]3C(=O)C=C4[C@@H]5C[C@@](C)(C(=O)O)CC[C@]5(C)CC[C@@]4(C)[C@]3(C)CC[C@@H]12 [Glycyrrhizin]
- liberation of histamine (mice hepatocytes [4]): inhibited the liberation of histamine
- hepatic injuries induced by carbon tetrachloride [5]: prevented hepatic injuries

Compound: COc1cc(/C=C/C(=O)O)ccc1O [Ferulic acid, ferulic acid]
- protection of hepatic mitochondria (hepatic mitochondria): protected the hepatic mitochondria

Compound: COc1cc(/C=C/C(=O)[O-])ccc1O.[Na+] [sodium ferulate]
- drug induced hepatic toxicity [6]: improved the hepatic toxicity
